Results reported in PubChem BioAssay (NCI).
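Exposure lasted 48 hours, with cells grown in 96-well plates and compounds tested at five concentrations. TGI denotes the concentration required for complete inhibition of growth.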

Legend:
Test in all cases: DTP human tumour cell line panel, 48 h
[1] = system: SNB-19 CNS
[2] = system: SF-295 CNS
[3] = system: OVCAR-4 ovarian
[4] = system: HCT-116 colon
[5] = system: MALME-3M melanoma
[6] = system: CAKI-1 renal
[7] = system: OVCAR-3 ovarian
[8] = system: MCF7 breast
[9] = system: BT-549 breast
[10] = system: HT29 colon
[11] = system: A549 NSCLC
[12] = system: NCI-H23 lung
[13] = system: EKVX NSCLC
[14] = system: UO-31 renal
[15] = system: NCI/ADR-RES ovarian
[16] = system: HOP-92 NSCLC
[17] = system: UACC-257 melanoma
[18] = system: OVCAR-5 ovarian
[19] = system: HS 578T breast
[20] = system: HCC-2998 colon

Row | Structure (SMILES) | TGI [1] [µM] | TGI [2] [µM] | TGI [3] [µM] | TGI [4] [µM] | TGI [5] [µM] | TGI [6] [µM] | TGI [7] [µM] | TGI [8] [µM] | TGI [9] [µM] | TGI [10] [µM] | TGI [11] [µM] | TGI [12] [µM] | TGI [13] [µM] | TGI [14] [µM] | TGI [15] [µM] | TGI [16] [µM] | TGI [17] [µM] | TGI [18] [µM] | TGI [19] [µM] | TGI [20] [µM]
1 | O=C1C2CCCCC2C(=O)N1n1c(-c2ccccc2)n[nH]c1=O (stereo unspecified) | > 100 | > 100 | > 100 | > 100 | > 100 | > 100 | > 100 | > 100 | > 100 | > 100 | > 100 | > 100 | > 100 | > 100 | > 100 | > 100 | > 100 | > 100 | > 100 | > 100
2 | O=C1CSC(c2ccccc2)N1c1ccc(-n2c(-c3ccccc3)nc3ccccc3c2=O)cc1 (stereo unspecified) | > 100 | > 100 | > 100 | > 100 | > 100 | > 100 | > 100 | > 100 | > 100 | > 100 | > 100 | > 100 | > 100 | > 100 | > 100 | > 100 | > 100 | > 100 | > 100 | > 100
3 | C=C1[C@H](OCC(C)C)[C@@H](O)[C@@H](OC(=O)c2cccnc2)C(C)(C)/C=C/[C@H](C)[C@H](OC(C)=O)[C@@]2(O)C[C@@](C)(OC(C)=O)[C@H](OC(=O)c3ccccc3)[C@@H]2[C@H]1OC(C)=O | > 5 | > 4.14 | > 5 | > 5 | 1.46 | > 5 | > 3.67 | > 5 | > 4.23 | 1.17 | > 5 | > 3.13 | > 5 | > 1.24 | > 3.25 | > 5 | > 5 | > 5 | > 2.39 | 1.59
4 | CC(O)CN1c2ccccc2Sc2ccccc21 (stereo unspecified) | > 100 | > 100 | > 100 | > 100 | > 100 | > 100 | > 100 | > 100 | > 100 | > 100 | > 100 | > 100 | > 100 | > 100 | > 100 | > 100 | > 100 | > 100 | > 100 | > 100
5 | COc1ccc2c(c1)-c1c(c3cc(OC)ccc3n1CCCN(C)C)CC2 | 34 | 16.8 | 30.8 | 51.1 | 5.47 | 28.1 | 29.6 | 26.5 | 32.2 | 13.9 | 50.6 | 37 | 31.4 | 26.7 | 31.4 | 33.8 | 11.6 | 28.4 | 20.5 | 10.2
6 | CC(=O)OCC1OC(N2C(c3ccccc3)=CC(c3ccco3)C(C#N)=C2S)C(OC(C)=O)C(OC(C)=O)C1OC(C)=O (stereo unspecified) | 38.7 | > 70.3 | 9.16 | 33.2 | 13.6 | 34.1 | 18.3 | > 82.4 | > 100 | > 100 | > 65.6 | 23.7 | > 52.1 | 29.5 | 39.9 | 26.9 | > 100 | 22 | 7.61 | 48.9
7 | O=C(O)C1(Cc2ccccc2)Cc2cc3c(cc2C1)CCC3 | > 100 | > 100 | > 100 | > 100 | > 100 | – | > 100 | > 100 | > 100 | > 100 | > 100 | > 100 | > 100 | > 100 | > 100 | 94 | > 100 | > 100 | > 100 | > 100
8 | CC12CCC(=O)N1c1cncnc1N2 (stereo unspecified) | > 10 | > 10 | > 10 | > 10 | > 10 | – | > 10 | > 10 | > 10 | > 10 | > 10 | > 10 | > 10 | > 10 | > 10 | > 10 | > 10 | > 10 | > 10 | > 10
9 | O=C1OC(C2Cc3ccc4c(c3C2=O)CCC4)c2ccccc21 (stereo unspecified) | > 100 | > 100 | > 100 | > 100 | > 100 | > 100 | > 100 | > 100 | > 100 | > 100 | > 100 | > 100 | > 100 | > 100 | > 100 | > 100 | > 100 | > 100 | > 100 | > 100
10 | N/N=C(\c1nc2ccc([N+](=O)[O-])cc2[nH]c1=O)C(O)c1ccc(Cl)c(Cl)c1 (stereo unspecified) | > 100 | > 100 | > 100 | > 100 | > 100 | > 100 | > 100 | > 100 | > 100 | > 100 | > 100 | > 100 | > 100 | > 100 | > 100 | > 100 | > 100 | > 100 | > 100 | > 100
11 | CCOC(=O)C1(C#N)C(=O)c2cc[n+](CC[n+]3ccc4c(c3)C(=O)C(C#N)(C(=O)OCC)C4=O)cc2C1=O (stereo unspecified) | > 100 | > 100 | > 100 | > 100 | > 100 | > 100 | > 100 | > 100 | > 100 | > 100 | > 100 | > 100 | > 100 | > 100 | > 100 | > 100 | > 100 | > 100 | > 100 | > 100
12 | Cc1c2c(nc3ccccc13)C(=O)c1cccnc1C2=O | 92.3 | 97.1 | > 100 | 18.8 | 3.56 | – | 43.9 | 30.1 | > 100 | 54.2 | 21.7 | 73.1 | 88 | > 100 | > 100 | > 100 | 27.2 | > 100 | > 100 | > 100
13 | CC(C)CCNC(=O)C(CC(C)C)NC(=O)[C@H]1O[C@@H]1C(=O)O (stereo partly specified) | > 100 | > 100 | > 100 | > 100 | > 100 | > 100 | > 100 | > 100 | > 100 | > 100 | > 100 | > 100 | > 100 | > 100 | > 100 | > 100 | > 100 | > 100 | > 100 | > 100
14 | CC(C)(C)C1CCC2c3c([nH]c4ccccc34)C3C(=O)N(c4ccccc4[N+](=O)[O-])C(=O)C3C2C1 (stereo unspecified) | 82.5 | 31.2 | – | 22.7 | 43 | 32.4 | 28.6 | 39.1 | 68.5 | 20.1 | 33.9 | 22.1 | 44.7 | > 100 | > 100 | 9.1 | 90.6 | 50.5 | 49.5 | 18.2
15 | O=C1/C(=C/c2ccc(O)cc2)CCc2ccc([N+](=O)[O-])cc21 | 98.7 | > 100 | > 100 | > 100 | > 100 | > 100 | > 100 | > 100 | > 100 | > 100 | > 100 | > 100 | > 100 | > 81.6 | > 100 | > 89.6 | > 100 | > 100 | > 79.8 | > 100
16 | COc1ccc2[nH]c3c(c2c1)CC(=O)N1CCCC(CC3O)C1 (stereo unspecified) | > 100 | > 100 | > 100 | > 100 | > 100 | > 100 | – | > 100 | > 100 | > 100 | > 100 | > 100 | – | > 100 | > 100 | > 100 | > 100 | – | > 100 | > 100
17 | O=c1cc(NNCc2ccccc2)[nH]c(=O)[nH]1 | > 100 | > 100 | > 100 | – | > 100 | > 100 | > 100 | > 100 | > 100 | > 100 | > 100 | > 100 | > 100 | > 100 | > 100 | > 100 | > 100 | > 100 | > 100 | > 100
18 | O/N=C(/CC(O)(C(F)(F)F)C(F)(F)F)c1ccccc1 | > 10 | > 10 | > 10 | > 10 | > 10 | > 10 | > 10 | > 10 | > 10 | > 10 | > 10 | > 10 | > 10 | – | > 10 | > 10 | > 10 | > 10 | > 10 | > 10
